Source: patent US5260335A, “Pharmaceutical preparations for the treatment of inflammatory diseases” (Plantamed Arzneimittel GmbH, priority 1991, dated 1993)

Legend:
[1] = system: bronchial obstruction after allergen inhalation; assay: Inhibition of bronchial obstruction after allergen (ovalbumin) inhalation in sensitized guinea pigs; type: in vivo; details: for activity in preventing bronchial obstruction after inhalation of an allergen (in words): methyl gallate, gallic acid and quercetin compared
Description: Male white guinea pigs were sensitized by means of intraperitoneal and intramuscular injection of ovalbumin according to the well-known methods. […] All the experiments were conducted according to a randomized evaluation record: Groups of 10 to 14 animals were divided into two sub-groups and either treated with the material to be studied or with control solutions. […] Ovalbumin, PAF, histamine and acetylcholine were administered as an aerosol atomized by ultrasound. Spontaneously breathing animals were placed in a dual-chamber body plethysmograph in which the two chambers were separated around the head of the animals by a rubber collar filled with water. Changes in volume in the two chambers were measured by means of pressure transfer systems. The degree of bronchial obstruction was determined by means of the parameter, "compressed air".

[2] = system: PAF-induced bronchial obstruction; assay: Inhibition of PAF-induced bronchial reaction (successive inhalation of histamine, PAF and histamine); type: in vivo, guinea pigs
Description: All the experiments were conducted according to a randomized evaluation record:
Groups of 10 to 14 animals were divided into two sub-groups and either treated with the material to be studied or with control solutions.
1 hour, 12 hours, 4 or 7 days after the pretreatment, the animals were exposed to various inhalation stimuli. […] Ovalbumin, PAF, histamine and acetylcholine were administered as an aerosol atomized by ultrasound.
Spontaneously breathing animals were placed in a dual-chamber body plethysmograph in which the two chambers were separated around the head of the animals by a rubber collar filled with water. Changes in volume in the two chambers were measured by means of pressure transfer systems. The degree of bronchial obstruction was determined by means of the parameter, "compressed air".
The action of the plant extracts or of the compounds on the PAF-induced reaction was studied by means of the successive inhalation of histamine, PAF and histamine:
One group of animals was divided into two sub-groups and both sub-groups inhaled histamine in a concentration causing a moderate bronchial obstruction. One hour later, one group was given the substances to be studied, the other group was given the solvent alone. Both groups were subjected 12 hours later to a stimulus by means of the successive inhalation of PAF and histamine with 1 μg PAF at first and, 60 minutes later, the same dose of histamine being given as before.

| Compound | % inhibition of bronchial obstruction after allergen inhalation, 1st stimulus ([1]; 5 mg/kg) [%] | % inhibition of bronchial obstruction after allergen inhalation, 2nd stimulus ([1]; 5 mg/kg) [%] | inhibition of bronchial reactions to an allergen stimulus ([1]; oral dose of 5 mg/kg) [%] | % inhibition of bronchial obstruction after PAF inhalation ([2]; 5 mg/kg) [%] | inhibition of PAF-induced bronchial reaction ([2]; oral dose of 5 mg/kg) | % inhibition of bronchial obstruction after allergen inhalation, 1st stimulus ([1]; 45 mg/kg) [%] | % inhibition of bronchial obstruction after allergen inhalation, 2nd stimulus ([1]; 45 mg/kg) [%] | activity in preventing bronchial obstruction after inhalation of an allergen (in words) [1] | % inhibition of bronchial obstruction after PAF inhalation ([2]; 45 mg/kg) [%] | activity in PAF-induced bronchial obstruction (in words) ([2]; compared with the mixture of quercetin, gallic acid and protocatechinic acid) |
| --- | --- | --- | --- | --- | --- | --- | --- | --- | --- | --- |
| O=C(OC1CC(OC(=O)c2cc(O)c(O)c(O)c2)(C(=O)O)CC(OC(=O)c2cc(O)c(O)c(O)c2)C1OC(=O)c1cc(O)c(O)c(O)c1)c1cc(O)c(O)c(O)c1 (single isomer, unassigned) [tetragalloylquinic acid] | 86 ± 24 | 57 ± 79 | 86±24 | 60 ± 43 | about 60% | – | – | – | – | – |
| O=C(O)c1cc(O)c(O)c(O)c1 [Gallic acid, gallic acid] | – | – | – | – | – | 37 ± 35 | 40 ± 31 | about the same activity | – | – |
| COC(=O)c1cc(O)c(O)c(O)c1 [Methyl gallate, methyl gallate] | – | – | – | – | – | 43 ± 34 | 41 ± 24 | about the same activity | 65 ± 24 | somewhat more activity than the mixture |
| O=c1c(O)c(-c2ccc(O)c(O)c2)oc2cc(O)cc(O)c12 [Quercetin, quercetin, reference compound] | – | – | – | – | – | 53 ± 23 | 34 ± 33 | about the same activity | – | – |
